Where two headings read alike, the source gives them in different places.
Assays:
[1] = tested on: αSyn dimerization in Neuro2A (N2A) cells; experiment: αSyn-dimerization assay (split Gaussia luciferase PCA); conditions: for activity at 10 µM: Mus musculus, N2a
[2] = tested on: ROS production in SH-SY5Y cells; experiment: ROS detection assay under oxidative stress; conditions: Homo sapiens, 3 h
recombinant porcine PREP = biological target: T1, recombinant porcine PREP (Sus scrofa, UniProt P23687); experiment: PREP activity assay (inhibition of proteolytic activity); format: biochemical
T1 construct: made in house
T1 sequence (P23687 whole entry): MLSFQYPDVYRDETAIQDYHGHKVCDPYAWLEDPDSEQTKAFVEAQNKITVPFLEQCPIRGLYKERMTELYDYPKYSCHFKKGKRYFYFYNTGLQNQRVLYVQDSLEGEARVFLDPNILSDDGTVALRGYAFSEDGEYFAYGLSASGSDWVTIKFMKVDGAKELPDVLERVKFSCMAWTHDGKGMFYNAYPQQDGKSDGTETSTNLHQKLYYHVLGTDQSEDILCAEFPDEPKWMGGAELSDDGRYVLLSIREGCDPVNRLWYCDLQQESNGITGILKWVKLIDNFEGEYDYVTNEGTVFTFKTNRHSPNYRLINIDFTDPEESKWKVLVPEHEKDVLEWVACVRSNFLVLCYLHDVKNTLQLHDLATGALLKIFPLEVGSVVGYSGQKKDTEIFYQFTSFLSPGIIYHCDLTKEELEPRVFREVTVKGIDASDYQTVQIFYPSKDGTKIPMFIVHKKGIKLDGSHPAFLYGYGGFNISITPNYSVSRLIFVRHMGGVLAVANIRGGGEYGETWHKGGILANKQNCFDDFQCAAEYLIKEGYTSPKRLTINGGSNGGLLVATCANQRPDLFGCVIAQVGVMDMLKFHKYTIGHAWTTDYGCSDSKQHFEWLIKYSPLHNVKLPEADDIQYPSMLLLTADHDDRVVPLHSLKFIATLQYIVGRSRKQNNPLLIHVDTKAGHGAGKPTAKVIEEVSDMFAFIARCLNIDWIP

[3] = tested on: HEK-293 cells stably expressing GFP-LC3B; experiment: Autophagic flux (GFP-LC3B reporter cells); conditions: for activity at 10 µM: Homo sapiens, HEK293, 24 h
[4] = biological target: T2, PREP in mouse brain homogenate (Mus musculus, UniProt Q9QUR6); experiment: PREP inhibition measured with mouse brain homogenate; format: biochemical
T2 construct: from tissue; host or cells: mouse brain homogenate
T2 sequence (Q9QUR6 whole entry): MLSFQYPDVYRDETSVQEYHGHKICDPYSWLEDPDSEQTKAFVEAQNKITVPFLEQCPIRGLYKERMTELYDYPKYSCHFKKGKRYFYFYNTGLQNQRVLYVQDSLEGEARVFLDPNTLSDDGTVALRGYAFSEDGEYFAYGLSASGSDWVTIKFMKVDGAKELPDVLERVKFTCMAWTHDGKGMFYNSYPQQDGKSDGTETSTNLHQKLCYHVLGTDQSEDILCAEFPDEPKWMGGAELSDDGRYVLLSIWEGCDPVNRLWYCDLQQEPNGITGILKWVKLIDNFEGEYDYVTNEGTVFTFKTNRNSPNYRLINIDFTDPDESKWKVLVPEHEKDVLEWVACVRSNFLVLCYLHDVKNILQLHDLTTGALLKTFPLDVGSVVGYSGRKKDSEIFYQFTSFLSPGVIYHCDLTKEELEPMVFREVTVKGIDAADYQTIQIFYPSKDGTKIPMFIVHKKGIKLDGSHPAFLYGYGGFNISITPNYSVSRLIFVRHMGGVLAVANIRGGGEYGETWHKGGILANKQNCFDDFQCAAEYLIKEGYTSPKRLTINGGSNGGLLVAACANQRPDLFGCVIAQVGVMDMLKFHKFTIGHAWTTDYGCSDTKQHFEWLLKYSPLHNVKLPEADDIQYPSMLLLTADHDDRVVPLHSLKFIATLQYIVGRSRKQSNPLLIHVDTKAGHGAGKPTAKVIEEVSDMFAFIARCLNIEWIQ

[5] = Stability studies (NMR, MS, polarimetry, long-term monitoring); conditions: NMR samples in solution, 2-4 days at room temperature; UPLC-MS two or more weeks after isolation
[6] = read-out: aSyn dimerization at 10 uM (%)
[7] = read-out: αSyn dimer. at 10 μM (%)
[8] = read-out: ROS production, % of the control
[9] = supplementary CSV, read-out: IC50
[10] = read-out: Autophagy at 10 uM (%)
[11] = read-out: autophagy at 10 μM (%)
[12] = read-out: luminescence signal compared to the DMSO control (αSyn dimerization)
[13] = Suc-Gly-Pro-AMC as substrate, 95% CI in brackets, read-out: IC50 (nM) (95% CI)
[14] = read-out: GFP signal of the DMSO control (autophagic flux)

Row | SMILES | activity at 10 µM [1, 6] | activity at 10 µM [1, 7] | activity at 10 µM ([2]; read-out: ROS at 10 uM (%)) | activity at 10 µM ([2]; read-out: ROS at 10 μM (%)) | activity at 10 µM [2, 8] | inhibitory activity (in words) (recombinant porcine PREP) | IC50 (recombinant porcine PREP; [9]) | activity at 10 µM [3, 10] | activity at 10 µM [3, 11] | activity at 10 µM [1, 12] | IC50 (recombinant porcine PREP; [13]) | activity at 10 µM [3, 14] | GFP signal compared to the DMSO control (in words) ([3]; 10 μM, one-way ANOVA with Dunnett's post-test) | effect on αSyn dimerization (in words) ([1]; 10 μM, N2A cells) | inhibitory activity (in words) ([4]; Table 2: mouse brain homogenate) | IC50 ([4]; measured with mouse brain homogenate, read-out: IC50 (nM) (95% CI)) | long-term stability (in words) [5]
1 | N#C[C@@H]1CCCN1c1oc(CCCc2ccccc2)nc1C(=O)C(F)(F)F [compound 12, (S)-1-(2-(3-Phenylpropyl)-4-(2,2,2-trifluoroacetyl)oxazol-5-yl)pyrrolidine-2-carbonitrile] | 104% | 104 ± 5% | 81% | 81 ± 10% | < 88% | strongly reduced inhibitory activity | 209000 nM | 98% | 98 ± 2% |  |  |  |  |  |  |  | 
2 | Cc1nc(-c2ccccc2)oc1N1CCC[C@H]1C#N [compound 13, (S)-1-(4-Methyl-2-phenyloxazol-5-yl)pyrrolidine-2-carbonitrile] | 80% | 80 ± 9% | 86% | 86 ± 13% | < 88% |  |  | 92% | 92 ± 1% | 80 to 85% | 7940 nM |  |  |  |  |  | 
3 | Cc1nc(Cc2ccccc2)oc1N1CCC[C@H]1C#N [compound 14, (S)-1-(2-Benzyl-4-methyloxazol-5-yl)pyrrolidine-2-carbonitrile] | 99% | 99 ± 8% | 84% | 84 ± 4% | < 88% |  |  | 97% | 97 ± 6% |  | 288 nM |  |  |  |  |  | 
4 | Cc1nc(CCc2ccccc2)oc1N1CCC[C@H]1C#N [compound 15, (S)-1-(4-Methyl-2-phenethyloxazol-5-yl)pyrrolidine-2-carbonitrile] | 75% | 75 ± 4% | 89% | 89 ± 1% |  |  |  | 88% | 88 ± 4% | ≤ 75% | 692 nM | ≤ 88% |  |  |  |  | 
5 | Cc1nc(CCOc2ccccc2)oc1N1CCC[C@H]1C#N [compound 17, (S)-1-(4-Methyl-2-(2-phenoxyethyl)oxazol-5-yl)pyrrolidine-2-carbonitrile] | 120% | 120 ± 8% | 70% | 70 ± 8% | 70% |  |  | 94% | 94 ± 6% |  | 1160 nM |  |  |  |  |  | 
6 | COc1ccc(CCCc2nc(C)c(N3CCC[C@H]3C#N)o2)cc1 [compound 18, (S)-1-(2-(3-(4-Methoxyphenyl)propyl)-4-methyloxazol-5-yl)pyrrolidine-2-carbonitrile] | 100% | 100 ± 5% | 86% | 86 ± 6% | < 88% |  |  | 98% | 98 ± 1% |  | 65 nM |  |  |  |  |  | 
7 | COc1ccc(CCCc2nc(C)c(N3CCC[C@H]3C#N)o2)cc1OC [compound 19, (S)-1-(2-(3-(3,4-Dimethoxyphenyl)propyl)-4-methyloxazol-5-yl)pyrrolidine-2-carbonitrile] | 98% | 98 ± 17% | 70% | 70 ± 9% | 70% |  |  | 93% | 93 ± 2% |  | 115 nM |  |  |  |  |  | 
8 | COc1cc(CCc2nc(C)c(N3CCC[C@H]3C#N)o2)cc(OC)c1 [compound 20, (S)-1-(2-(3,5-Dimethoxyphenethyl)-4-methyloxazol-5-yl)pyrrolidine-2-carbonitrile] | 100% | 100 ± 9% | 76% | 76 ± 8% | < 88% |  |  | 89% | 89 ± 6% |  | 1290 nM |  |  |  |  |  | 
9 | Cc1nc(CCCc2cccs2)oc1N1CCC[C@H]1C#N [compound 21, (S)-1-(4-Methyl-2-(3-(2-thienyl)propyl)oxazol-5-yl)pyrrolidine-2-carbonitrile] | 101% | 101 ± 8% | 91% | 91 ± 6% |  |  |  | 72% | 72 ± 3% |  | 18 nM | ≤ 88% | significantly decreased the signal |  |  |  | 
10 | Cc1nc(CCc2c[nH]c3ccccc23)oc1N1CCC[C@H]1C#N [compound 22, (S)-1-(2-(2-(1H-Indol-3-yl)ethyl)-4-methyloxazol-5-yl)pyrrolidine-2-carbonitrile] | 72% | 72 ± 2% | 82% | 82 ± 11% | < 88% |  |  | 97% | 97 ± 3% | ≤ 75% | 890 nM |  |  |  |  |  | 
11 | Cc1nc(CCc2cn(C(=O)C(F)(F)F)c3ccccc23)oc1N1CCC[C@H]1C#N [compound 23, (S)-1-(4-Methyl-2-(2-(1-(2,2,2-trifluoroacetyl)-1H-indol-3-yl)ethyl)oxazol-5-yl)pyrrolidine-2-carbonitrile] | 87% | 87 ± 11% | 84% | 84 ± 7% | < 88% |  |  | 94% | 94 ± 3% |  | 120 nM |  |  | comparable effect as KYP-2047 |  |  | 
12 | Cc1nc(CCC(=O)N2CCCCCC2)oc1N1CCC[C@H]1C#N [compound 24, (S)-1-(2-(3-(Azepan-1-yl)-3-oxopropyl)-4-methyloxazol-5-yl)pyrrolidine-2-carbonitrile] | 117% | 117 ± 9% | 90% | 90 ± 5% |  |  |  | 84% | 84 ± 5% |  | 654 nM | ≤ 88% |  |  |  |  | 
13 | Cc1nc(C(=O)CCc2ccccc2)oc1N1CCCC1 [compound 25, 1-(4-Methyl-5-(pyrrolidin-1-yl)oxazol-2-yl)-3-phenylpropan-1-one] | 110% | 110 ± 6% | 105% | 105 ± 8% |  |  |  | 95% | 95 ± 10% |  |  |  |  |  | very weak inhibitor | 90000 nM | 
14 | N#Cc1nc(CCCc2ccccc2)oc1N1CCC[C@H]1C#N [compound 28, (S)-5-(2-Cyanopyrrolidin-1-yl)-2-(3-phenylpropyl)oxazole-4-carbonitrile] | 109% | 109 ± 5% | 93% | 93 ± 11% |  | very weak inhibitors | 76600 nM | 97% | 97 ± 5% |  |  |  |  |  |  |  | 
15 | c1ccc(CCCc2ncc(-c3ccccc3)o2)cc1 [compound 29, 5-Phenyl-2-(3-phenylpropyl)oxazole] | 90% | 90 ± 6% | 93% | 93 ± 11% |  | strongly reduced inhibitory activities | 91600 nM | 90% | 90 ± 4% |  |  |  |  |  |  |  | 
16 | c1ccc(CCCc2ncc(-c3cccs3)o2)cc1 [compound 30, 2-(3-Phenylpropyl)-5-(2-thienyl)oxazole] | 86% | 86 ± 8% | 96% | 96 ± 9% |  | strongly reduced inhibitory activities | 37300 nM | 98% | 98 ± 10% | 80 to 85% |  |  |  |  |  |  | 
17 | Cc1oc(CCCc2ccccc2)nc1C(=O)N1CCC[C@H]1C#N [compound 33, (S)-1-(5-Methyl-2-(3-phenylpropyl)oxazole-4-carbonyl)pyrrolidine-2-carbonitrile] | 109% | 109 ± 6% | 98% | 98 ± 6% |  | very low inhibitory activities | 12900 nM | 97% | 97 ± 5% |  |  |  |  |  |  |  | 
18 | Cc1nc(CCCc2ccccn2)oc1N1CCCC1C#N (stereo not shown) [compound 69] |  |  |  |  |  |  |  |  |  |  |  |  |  |  |  |  | lowered the stability
19 | Cc1nc(CCc2cccnc2)oc1N1CCCC1C#N (stereo not shown) [compound 70] |  |  |  |  |  |  |  |  |  |  |  |  |  |  |  |  | lowered the stability
